Source: ChEMBL document CHEMBL1201862, “PubChem BioAssay data set” (2004)
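Where inhibition never reached the appropriate level, the endpoint shown equals the highest concentration tested. Otherwise, values were interpolated linearly from a five-concentration, 48-hour dose response in 96-well plates. GI50 = concentration required for 50% inhibition of growth.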 Active and inactive are the calls of the source. Rule as the data show it: active = GI50 up to about 1.1 µM and inactive = higher.

Legend:
Assay in all cases: growth of human tumour cells (NCI), 48 h
786-0 = system: 786-0
A498 = system: A498
A549 = system: A549
ACHN = system: ACHN
CAKI-1 = system: CAKI-1
CCRF-CEM = system: CCRF-CEM
COLO 205 = system: COLO 205
DLD-1 = system: DLD-1
DMS-114 = system: DMS-114
DMS-273 = system: DMS-273
EKVX = system: EKVX
HCT-116 = system: HCT-116
HCT-15 = system: HCT-15
HOP-62 = system: HOP-62
HOP-92 = system: HOP-92
HT-29 = system: HT-29
IGROV-1 = system: IGROV-1
K562 = system: K562
KM-20L2 = system: KM-20L2
KM12 = system: KM12
LOX IMVI = system: LOX IMVI
LXFL 529 = system: LXFL 529
M14 = system: M14
M19-MEL = system: M19-MEL
MOLT-4 = system: MOLT-4
Malme-3M = system: Malme-3M
NCI-H226 = system: NCI-H226
NCI-H23 = system: NCI-H23
NCI-H460 = system: NCI-H460
NCI-H522 = system: NCI-H522
OVCAR-3 = system: OVCAR-3
OVCAR-4 = system: OVCAR-4
OVCAR-5 = system: OVCAR-5
OVCAR-8 = system: OVCAR-8
RPMI-8226 = system: RPMI-8226
RXF 393 = system: RXF 393
RXF 631 = system: RXF 631
SF-268 = system: SF-268
SF-539 = system: SF-539
SK-MEL-28 = system: SK-MEL-28
SK-MEL-2 = system: SK-MEL-2
SK-MEL-5 = system: SK-MEL-5
SK-OV-3 = system: SK-OV-3
SN12C = system: SN12C
SNB-19 = system: SNB-19
SNB-75 = system: SNB-75
SNB-78 = system: SNB-78
SR = system: SR
SW-620 = system: SW-620
TK-10 = system: TK-10
U-251 = system: U-251
UACC-257 = system: UACC-257
UO-31 = system: UO-31
HCC 2998 = system: HCC 2998
HL-60 = system: HL-60
HOP-18 = system: HOP-18
SF-295 = system: SF-295
UACC-62 = system: UACC-62
XF498 = system: XF498

OCCN1CCN(CCO)Cc2ccccc2OCCOc2ccccc2C1
GI50 (786-0): > 100 µM (inactive) | GI50 (A498): > 100 µM (inactive) | GI50 (A549): > 100 µM (inactive) | GI50 (ACHN): > 100 µM (inactive) | GI50 (CAKI-1): > 100 µM (inactive) | GI50 (CCRF-CEM): > 100 µM (inactive) | GI50 (COLO 205): > 100 µM (inactive) | GI50 (DLD-1): > 100 µM (inactive) | GI50 (DMS-114): > 100 µM (inactive) | GI50 (DMS-273): > 100 µM (inactive) | GI50 (EKVX): > 100 µM (inactive) | GI50 (HCT-116): 51.6 µM (inactive) | GI50 (HCT-15): > 100 µM | GI50 (HOP-62): > 100 µM (inactive) | GI50 (HOP-92): > 100 µM (inactive) | GI50 (HT-29): 96.8 µM (inactive) | GI50 (IGROV-1): > 100 µM (inactive) | GI50 (K562): > 100 µM (inactive) | GI50 (KM-20L2): > 100 µM (inactive) | GI50 (KM12): > 100 µM (inactive) | GI50 (LOX IMVI): 29.8 µM (inactive) | GI50 (LXFL 529): 64.4 µM (inactive) | GI50 (M14): > 100 µM (inactive) | GI50 (M19-MEL): > 100 µM (inactive) | GI50 (MOLT-4): > 100 µM (inactive) | GI50 (Malme-3M): > 100 µM (inactive) | GI50 (NCI-H226): > 100 µM (inactive) | GI50 (NCI-H23): > 100 µM (inactive) | GI50 (NCI-H460): > 100 µM (inactive) | GI50 (NCI-H522): > 100 µM (inactive) | GI50 (OVCAR-3): > 100 µM (inactive) | GI50 (OVCAR-4): > 100 µM (inactive) | GI50 (OVCAR-5): > 100 µM (inactive) | GI50 (OVCAR-8): > 100 µM (inactive) | GI50 (RPMI-8226): > 100 µM (inactive) | GI50 (RXF 393): > 100 µM (inactive) | GI50 (RXF 631): > 100 µM (inactive) | GI50 (SF-268): > 100 µM (inactive) | GI50 (SF-539): > 100 µM (inactive) | GI50 (SK-MEL-28): > 100 µM (inactive) | GI50 (SK-MEL-2): > 100 µM (inactive) | GI50 (SK-MEL-5): > 100 µM (inactive) | GI50 (SK-OV-3): > 100 µM (inactive) | GI50 (SN12C): > 100 µM (inactive) | GI50 (SNB-19): > 100 µM (inactive) | GI50 (SNB-75): 33 µM (inactive) | GI50 (SNB-78): > 100 µM (inactive) | GI50 (SR): > 100 µM (inactive) | GI50 (SW-620): > 100 µM (inactive) | GI50 (TK-10): > 100 µM (inactive) | GI50 (U-251): > 100 µM (inactive) | GI50 (UACC-257): > 100 µM (inactive) | GI50 (UO-31): > 100 µM (inactive)

CC(=O)NC1C(OCc2ccccc2)OC(COC(=O)CCCCCCCCCCNc2ccc([N+](=O)[O-])c3[nH]c4ccccc4c(=O)c23)C(O)C1OC(C)C(=O)NC(C)C(=O)NC(CCC(N)=O)C(=O)OCc1ccccc1 (configuration not stated)
GI50 (786-0): > 100 µM (inactive) | GI50 (A498): > 100 µM (inactive) | GI50 (A549): > 100 µM (inactive) | GI50 (ACHN): > 100 µM (inactive) | GI50 (CAKI-1): > 100 µM (inactive) | GI50 (COLO 205): > 100 µM (inactive) | GI50 (DLD-1): > 100 µM (inactive) | GI50 (DMS-114): > 100 µM (inactive) | GI50 (DMS-273): > 100 µM (inactive) | GI50 (EKVX): > 100 µM (inactive) | GI50 (HCC 2998): > 100 µM (inactive) | GI50 (HCT-116): > 100 µM (inactive) | GI50 (HCT-15): > 100 µM | GI50 (HL-60): > 100 µM (inactive) | GI50 (HOP-18): > 100 µM (inactive) | GI50 (HOP-62): > 100 µM (inactive) | GI50 (HT-29): > 100 µM (inactive) | GI50 (IGROV-1): > 100 µM (inactive) | GI50 (K562): > 100 µM (inactive) | GI50 (KM-20L2): > 100 µM (inactive) | GI50 (KM12): > 100 µM (inactive) | GI50 (LOX IMVI): > 100 µM (inactive) | GI50 (LXFL 529): > 100 µM (inactive) | GI50 (M14): > 100 µM (inactive) | GI50 (M19-MEL): > 100 µM (inactive) | GI50 (MOLT-4): > 100 µM (inactive) | GI50 (NCI-H226): > 100 µM (inactive) | GI50 (NCI-H23): > 100 µM (inactive) | GI50 (NCI-H460): > 100 µM (inactive) | GI50 (NCI-H522): > 100 µM (inactive) | GI50 (OVCAR-3): > 100 µM (inactive) | GI50 (OVCAR-4): > 100 µM (inactive) | GI50 (OVCAR-5): > 100 µM (inactive) | GI50 (OVCAR-8): > 100 µM (inactive) | GI50 (RPMI-8226): > 100 µM (inactive) | GI50 (SF-268): > 100 µM (inactive) | GI50 (SF-295): > 100 µM (inactive) | GI50 (SF-539): > 100 µM (inactive) | GI50 (SK-MEL-28): > 100 µM (inactive) | GI50 (SK-MEL-2): > 100 µM (inactive) | GI50 (SK-MEL-5): > 100 µM (inactive) | GI50 (SK-OV-3): > 100 µM (inactive) | GI50 (SN12C): > 100 µM (inactive) | GI50 (SNB-19): > 100 µM (inactive) | GI50 (SNB-75): > 100 µM (inactive) | GI50 (SNB-78): > 100 µM (inactive) | GI50 (SR): > 100 µM (inactive) | GI50 (SW-620): > 100 µM (inactive) | GI50 (TK-10): > 100 µM (inactive) | GI50 (U-251): > 100 µM (inactive) | GI50 (UACC-257): > 100 µM (inactive) | GI50 (UACC-62): > 100 µM (inactive) | GI50 (UO-31): > 100 µM (inactive) | GI50 (XF498): > 100 µM (inactive)
